Bridge positions count the residues as written; N and C are the ends. Peptide text beside a SMILES is read from it.
Legend:
[1] = test system: P-Smad2/3; assay: P-Smad2/3 content in lung tissue, BLM mouse fibrosis model; assay type: in vivo; settings: single intratracheal dose 3 mg/kg on Day 7, lung 24 h later, BLM model group = 100.00
Outline: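 Male C57/6J mice (6–8 weeks, 18–20 g, n=8/group) received intratracheal bleomycin 0.7 USP/kg on Day 1, then a single intratracheal 3 mg/kg peptide dose or saline on Day 7. Values are expressed as the treated/model content ratio.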

[2] = test system: human breast cancer MCF7 cells; assay: Transwell tumor cell migration, co-culture with PMA-differentiated THP-1 cells; assay type: cell-based; settings: 100 μM polypeptide 48 h, co-culture 48 h; negative control group = 100.00
Method: (§1) This Example was to assess the effects of polypeptides on the migration abilities of different tumor cells. The experiment was performed using transwell nested chambers (membrane pore size of 8 μm), where THP-1 cells were inoculated in the lower chamber and treated with 300 nM PMA (Sigma, Catalog No.P1585) for differentiation and chamber-wall adherence, and then treated with 100 μM polypeptide (in the negative control, an equal volume of solvent was added) for 48 hours. The upper chamber was inoculated with tumor cells, human lung adenocarcinoma A549 cells (American Typical Culture Collection, ATCC, CCL-18), and co-cultured for 24 hours; or inoculated with human liver cancer HepG2/C3A cells (ATCC, CRL-10741), and co-cultured for 24 h; or inoculated with human breast cancer MCF7 cells (ATCC, HTB-22), and co-cultured for 48 h. After that, the upper chamber was taken out, fixed with 70% ethanol for 10 min and washed, then stained with Giemsa staining solution (Beyotime, Catalog No.C0131) for 45 min. After washing with double distilled water 2-3 times, unmigrated cells were wiped off the upper layer with a cotton swab. After the chamber was dried, it was observed under a microscope, and five different fields of view under a 100× magnification were randomly selected for counting and statistics. The polypeptides had significant inhibitory effects on the migratory abilities of human lung adenocarcinoma cells, human liver cancer cells, and human breast cancer cells.

[3] = test system: human liver cancer HepG2/C3A cells; assay: as above; assay type: cell-based; settings: 100 μM polypeptide 48 h, co-culture 24 h; negative control group = 100.00
Method: as §1

[4] = test system: human lung adenocarcinoma A549 cells; assay: as above; assay type: cell-based; settings: 100 μM polypeptide 48 h, co-culture 24 h; negative control group = 100.00
Method: as §1

Compound | P-Smad2/3 content in lung tissue, ratio to model group, Mean(%) ([1]; 3 mg/kg) | MCF7 migration Mean (%) [2] | HEPG2/C3A migration Mean (%) [3] | A549 migration Mean (%) [4] | P-Smad2/3 content in lung tissue, ratio to model group, Mean(%) [1]
C[C@@H]1NC(=O)[C@H](CC(=O)O)NC(=O)[C@H](CCC(N)=O)NC(=O)[C@H]([C@@H](C)O)NC(=O)[C@H](CC(N)=O)NC(=O)[C@H](CC(=O)O)NC(=O)[C@H](CCC(=O)O)NC1=O [SEQ ID NO: 40, cyclo[Thr-Gln-Asp-Ala-Glu-Asp-Asn]] (cyclo(AEDNTQD)) | 83.20% | 51.27% | 67.27% | 67.97% | 
CC(=O)N[C@H](C(=O)N[C@H]1CSSC[C@@H](C(=O)O)NC(=O)[C@H](CC(N)=O)NC(=O)[C@H](CC(=O)O)NC(=O)[C@H](CCC(=O)O)NC(=O)[C@H](C)NC(=O)[C@H](CC(=O)O)NC1=O)[C@@H](C)O [SEQ ID NO: 43, Ac-Thr-cyclo[Cys-Asp-Ala-Glu-Asp-Asn-Cys]] (Ac-TCDAEDNC-OH; disulfide 2-8) |  | 73.84% | 71.02% | 83.37% | 49.30%
CC(=O)N[C@H](C(=O)N[C@H]1CSSC[C@@H](C(N)=O)NC(=O)[C@H](CC(N)=O)NC(=O)[C@H](CC(=O)O)NC(=O)[C@H](CCC(=O)O)NC(=O)[C@H](C)NC(=O)[C@H](CC(=O)O)NC1=O)[C@@H](C)O [SEQ ID NO: 44, Ac-Thr-cyclo[Cys-Asp-Ala-Glu-Asp-Asn-Cys]-NH2] (Ac-TCDAEDNC-NH2; disulfide 2-8) |  | 68.24% | 70.63% | 73.63% | 79.93%
C[C@@H]1NC(=O)[C@H]([C@@H](C)O)NC(=O)[C@H](CC(N)=O)NC(=O)[C@H](CC(=O)O)NC(=O)[C@H](CCC(=O)O)NC(=O)[C@@H]2CCCN2C(=O)[C@H](CC(=O)O)NC(=O)[C@H](CCC(N)=O)NC(=O)[C@H]([C@@H](C)O)NC(=O)[C@H](CO)NC1=O [SEQ ID NO: 46, cyclo[Thr-Gln-Asp-Pro-Glu-Asp-Asn-Thr-Ala-Ser]] (cyclo(ASTQDPEDNT)) |  | 57.98% | 64.77% | 36.12% | 74.60%
Ac-TQDAEDN-NH2 [SEQ ID NO: 06, Ac-Thr-Gln-Asp-Ala-Glu-Asp-Asn-NH2] |  | 51.95% | 81.77% | 80.41% | 54.89%
Ac-TQDAEDNTASH-NH2 [SEQ ID NO: 33, Ac-Thr-Gln-Asp-Ala-Glu-Asp-Asn-Thr-Ala-Ser-His-NH2] |  | 47.13% | 72.07% | 62.89% | 71.09%
Ac-TQDAEDPTA-NH2 [SEQ ID NO: 22, Ac-Thr-Gln-Asp-Ala-Glu-Asp-Pro-Thr-Ala-NH2] |  | 48.64% | 76.69% | 59.45% | 55.32%
Ac-TQDAEDPTAS-NH2 [SEQ ID NO: 25, Ac-Thr-Gln-Asp-Ala-Glu-Asp-Pro-Thr-Ala-Ser-NH2] |  | 61.75% | 63.99% | 62.95% | 65.07%
Ac-TQDPEDNTAS-NH2 [SEQ ID NO: 26, Ac-Thr-Gln-Asp-Pro-Glu-Asp-Asn-Thr-Ala-Ser-NH2] |  | 63.23% | 55.16% | 73.25% | 76.78%
